Laboratory results reported in patent US12358913B2, “Crystal of diarylthiohydantoin compound” (CHIA TAI TIANQING PHARMACEUTICAL GROUP CO., LTD., priority 2019, dated 2025).
Where “and” joins values, the source holds several entries; their conditions need not be identical. Equal entries are not always repeated.

Key:
[1] = Pharmacokinetic test in male CD-1 mice, plasma by LC/MS/MS; format: in vivo; settings: mouse, po, intragastric administration, 2 mg/kg
Description: Taking male CD-1 mice as test animals, the drug concentrations in the plasma of the mice at different time points after intravenous and intragastric administration of the compound of formula I were determined by an LC/MS/MS method. This example aims to investigate the pharmacokinetic performance of the compound of formula I in mice and to evaluate the pharmacokinetic characteristics.
2.2 Test Animals: 4 Healthy Adult Male CD-1 Mice, which were Divided into 2 Groups (2 Mice in Each Group) According to the Body Weight. Animals were Purchased from Shanghai Sippe-Bk Lab Animal Co., Ltd., and Animal Production License Number was SCXK (Shanghai) 2013-0016. 2.3 Drug Preparation
An appropriate amount of sample was weighed, and sequentially added with an appropriate amount of DMSO, PEG400 and water according to the volume ratio of 10:40:50, and the mixture was stirred and ultrasonicated to a clear state (0.4 mg/mL) for intravenous administration. […]
LC/MS/MS method was used to determine the content of the test compound in the plasma of mice after intravenous and intragastric administration. The linear range of the method was 2.00-6000 nmol/L; plasma samples were analyzed after treatment with acetonitrile to precipitate proteins.

[2] = Tissue distribution test (plasma and brain) in male CD-1 mice; format: in vivo; settings: intragastric administration, 2 mg/kg, 4 h
Description: Taking male CD-1 mice as test animals, the drug concentrations in the plasma and brain of the mice after intragastric administration of the compound of formula I were determined by an LC/MS/MS method.
2.2 Test Animals: 2 Healthy Adult Male CD-1 Mice. Animals were Purchased from Shanghai Sippe-Bk Lab Animal Co., Ltd.
An appropriate amount of sample was added into 0.5% CMC/0.2% Tween aqueous solution, and the mixture was stirred and ultrasonicated to a suspension state (0.4 mg/mL).
Two male CD-1 mice, after fasting overnight, were subjected to intragastric administration at a volume of 5 mL/kg and a dosage of 2 mg/kg.
Male CD-1 mice, after intragastric administration of the compound of formula I, were subjected to 100 μL of blood collection by cardiac puncture at 4 h, and the blood was placed in tubes containing 2 μL of EDTA-K2 and centrifuged at 3000 g for 15 min to separate out 30 μL of plasma, which was stored at −60° C. Meanwhile, brain tissues were collected, washed, homogenized with 9-fold 15 mM PBS/MeOH (v: v, 2:1), and stored at −60° C. The animals were allowed to eat 4 h after administration.
LC/MS/MS method was used to determine the content of test compound in the plasma and brain of mice after intragastric administration. The linear range of the method was 2.00-6000 nmol/L; plasma samples were analyzed after treatment with acetonitrile to precipitate proteins.

[3] = tested on: human prostate cancer LNCaP-FGC cells; assay: In vivo pharmacodynamic study on subcutaneous xenograft tumor model of human prostate cancer LNCaP-FGC cells; set-up: species or system CB-17 SCID mouse; settings: for Relative tumor proliferation rate T/C / TGI: after 21 days of administration
Description: Human prostate cancer LNCaP-FGC cells (ATCC, Manassas, VA) were cultured in vitro, in a monolayer way, in an RPMI1640 medium containing 10% fetal bovine serum at 37° C. and 5% CO2. Routine digestion treatment with pancreatin-EDTA was performed twice a week for passage. When the saturation degree of the cells is 80-90%, the cells were collected, counted and inoculated.
0.2 mL (10×10^6) of LNCaP-FGC cells (10×10^6+Matrigel, 1:1) were inoculated subcutaneously into the right back of each CB-17 SCID mouse. The mice were divided into groups for administration when the mean tumor volume reached 100-150 mm^3.
Tumor diameters were measured twice weekly using a vernier caliper. The calculation formula for tumor volume was: V=0.5a×b^2, with a and b representing the long and short diameters of the tumor, respectively. The anti-tumor therapeutic effect of the compound was evaluated by TGI (%) or relative tumor proliferation rate T/C (%). TGI (%)=[(1−(average tumor volume of a treatment group at the end of administration−average tumor volume of the treatment group at the start of administration))/(average tumor volume of a vehicle control group at the end of treatment-average tumor volume of the vehicle control group at the start of treatment)]×100%. The calculation formula for relative tumor proliferation rate T/C (%) was as follows: T/C %=TRTV/CRTV×100% (TRTV: RTV of treatment group; CRTV: RTV of negative control group). Relative tumor volume (RTV) was calculated based on the results of tumor measurement. The calculation formula was: RTV=Vt/V0, wherein V0 was the average tumor volume measured at the time of grouping and administration (i.e., d0), Vt was the average tumor volume at a certain measurement, and the data of TRTV and CRTV were obtained on the same day.
Statistical analysis included mean and standard error of mean (SEM) of tumor volume at each time point for each group. […] Comparison between two groups was analyzed using T-test, comparison among three or more groups was analyzed using one-way ANOVA. […] If there was […] in F values, Dunnet (2-sided) method was used for analysis. All data analysis was performed with SPSS 17.0. “P<0.05” was defined as a significant difference.

[4] = Hygroscopicity by dynamic vapor sorption (DVS); format: physicochemical; settings: 25±1° C. and 80±2% RH
Description: Instrument model: SMS DVS Advantage
Test conditions: a sample (10-15 mg) of the crystal of the compound of formula I prepared in Example 2 was placed in a DVS sample tray for testing.
The detailed DVS parameters were as follows:
Balancing: dm/dt=0.01%/min (shortest: 10 min, longest: 180 min)
Drying: drying at 0% RH for 120 min
RH (%) test gradient: 10%
Range of RH (%) test gradient: 0%-90%-0%
Note: ΔW % represents the moisture gain of the test compound at 25±1° C. and 80±2% RH.

[5] = Solid stability of the crystal, purity by HPLC; format: physicochemical
Description: References were made to the requirements in the “Guidelines for the Stability Test of APIs and Preparations” (Appendix XIX C of the Volume Two of the Chinese Pharmacopoeia, 2010 Edition) for the conditions and the method for the stability test of the crystal, and the stability of the crystalline solid under conditions of different influence factors was studied with the crystal prepared in Example 2 as a test sample.
High performance liquid chromatography (HPLC): column: Waters xbridge shiled RP18 (150 mm*4.6 mm, 3.5 μm); PN: 186003045; wavelength: 228 nm; mobile phase A: pH 4.5, 5 mmol/L sodium acetate buffer solution (pH adjusted with phosphoric acid); mobile phase B: acetonitrile; elution mode: gradient elution.

CCc1cc(=O)n2cc(N3C(=S)N(c4ccc(C#N)c(Cl)c4)C(=O)C3(C)C)cc(F)c2n1 [Compound of formula I, 2-chloro-4-(3-(2-ethyl-9-fluoro-4-oxo-4H-pyrido[1,2-a]pyrimidin-7-yl)-4,4-dimethyl-5-oxo-2-thioimidazolidin-1-yl)benzonitrile]
bioavailability [1]: 68.1% | Brain-to-plasma concentration ratio [2]: 0.0322 | Concentration in brain [2]: 265 nmol/kg | Concentration in plasma [2]: 8.26 µM | Relative tumor proliferation rate T/C ([3]; 10 mg/kg PO QD): 43.93% | TGI ([3]; 10 mg/kg PO QD): 62.75% | Tolerance of the animals to the test compound ([3]; 10 mg/kg and 20 mg/kg PO QD × 21 days): good tolerance | Relative tumor proliferation rate T/C ([3]; 20 mg/kg PO QD): 32.37% | TGI ([3]; 20 mg/kg PO QD): 76.16%

CCc1cc(=O)n2cc(N3C(=S)N(c4ccc(C#N)c(Cl)c4)C(=O)C3(C)C)cc(F)c2n1 [crystal of the compound of formula I, 2-chloro-4-(3-(2-ethyl-9-fluoro-4-oxo-4H-pyrido[1,2-a]pyrimidin-7-yl)-4,4-dimethyl-5-oxo-2-thioimidazolidin-1-yl)benzonitrile]
ΔW % (moisture gain) [4]: 1.018% | Purity of the crystal (stability) ([5]; 75% RH, 40° C., 1 month): 99.17% | Purity of the crystal (stability) ([5]; 75% RH, 40° C., 2 months): 99.14% | Purity of the crystal (stability) ([5]; 75% RH, 40° C., 3 months): 99.16% | Purity of the crystal (stability) ([5]; 75% RH, 40° C., 10 days): 99.15% | Purity of the crystal (stability) ([5]; 75% RH, 60° C., 1 day): 99.14% | Purity of the crystal (stability) ([5]; 75% RH, 60° C., 10 days): 99.16% | Purity of the crystal (stability) ([5]; 92.5% RH, room temperature, 10 days): 99.18% and 99.14% | Purity of the crystal (stability) ([5]; Initial test sample): 99.17% | Purity of the crystal (stability) ([5]; wrapped with tin foil paper, exposed to visible light of 1200000 Lux and UV of 200 W at room temperature): 99.13%
